Experimental data from patent publication US7462641B2, “(2S,4S)-4-fluoro-1-[4-fluoro-beta-(4-fluorophenyl)-L-phenylalanyl]-2-pyrrolidinecarbonitrile p-toluenesulfonic acid salt and anhydrous crystalline forms thereof” (SmithKline Beecham Corporation, priority 2003, dated 2008).
Structures can show the parent of a compound that is named as a salt.

Experiments:
[1] = Moisture sorption testing (gas flow microbalance, VTI SGA-100); assay type: physicochemical; settings: for hygroscopicity: 25° C.
Description: The sample was equilibrated at 25° C. and 30% relative humidity and the relative humidity increased stepwise (adsorption) to 40, 50, 60, 70, 80, 90%—each relative humidity step was held until the sample equilibrated at that condition. Equilibrium was defined as a weight change of less than 0.015% in 5 minutes. The relative humidity was then decreased step wise (desorption) to 90, 80, 70, 60, 50, 40, 30, 20, 10, and 5%—each step held until equilibrium was reached. The equilibrium condition was the same as in the sorption phase. The % w/w increase or decrease in moisture content of the sample is reported for each equilibrated RH condition.
The sample was dried at 60C under a dry nitrogen stream until the rate of weight loss was less than 0.015% in 5 minutes. After drying the sample was equilibrated at 25C and the relative humidity increased stepwise (adsorption) to 5, 20, 45, 75, and 95%—each relative humidity step was held until the sample equilibrated at that condition or a 180 minute time limit was reached. Equilibrium was defined as a weight change of less than 0.015% in 5 minutes. The relative humidity was then decreased step wise (desorption) to 75, 45, and 20%—each step held until equilibrium was reached. The equilibrium condition was the same as in the sorption phase. The % w/w increase or decrease in moisture content of the sample is reported for each equilibrated RH condition.

[2] = Stability testing in 40 C/75% RH oven; assay type: physicochemical; settings: after two (2) weeks in an 40 C/75% RH oven
DPP IV = DPP IV (Homo sapiens, UniProt P27487); settings: as noted in WO 03/02531; cited from earlier work
DPP IV, sequence (P27487 whole entry, species assumed): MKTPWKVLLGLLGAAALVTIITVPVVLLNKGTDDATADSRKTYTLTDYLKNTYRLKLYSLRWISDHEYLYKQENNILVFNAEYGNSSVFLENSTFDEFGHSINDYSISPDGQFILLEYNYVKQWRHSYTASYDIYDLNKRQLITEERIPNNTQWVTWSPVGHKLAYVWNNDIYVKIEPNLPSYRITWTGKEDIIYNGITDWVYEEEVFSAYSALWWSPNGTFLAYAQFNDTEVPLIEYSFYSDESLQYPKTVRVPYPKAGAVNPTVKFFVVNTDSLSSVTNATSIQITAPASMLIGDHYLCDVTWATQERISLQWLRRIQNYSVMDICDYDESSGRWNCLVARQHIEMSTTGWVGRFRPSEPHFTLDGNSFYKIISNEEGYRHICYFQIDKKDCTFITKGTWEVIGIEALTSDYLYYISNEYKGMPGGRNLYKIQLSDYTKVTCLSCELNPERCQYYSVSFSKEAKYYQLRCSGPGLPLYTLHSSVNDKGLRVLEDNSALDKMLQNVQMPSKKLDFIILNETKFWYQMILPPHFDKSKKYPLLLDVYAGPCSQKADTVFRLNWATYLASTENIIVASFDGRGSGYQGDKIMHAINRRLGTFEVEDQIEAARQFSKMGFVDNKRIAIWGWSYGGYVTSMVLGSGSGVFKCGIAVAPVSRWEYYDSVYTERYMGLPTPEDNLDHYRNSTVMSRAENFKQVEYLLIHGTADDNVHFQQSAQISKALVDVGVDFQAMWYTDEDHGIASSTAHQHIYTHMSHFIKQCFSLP

Structure (SMILES)	hygroscopicity [1]	water adsorbed ([1]; relative humidity between 0% and 95% at 25C)	water adsorbed ([1]; relative humidity between 5% to 90% at 25° C.)	desorption of adsorbed water ([1]; when the relative humidity is decreased)	stability (purity data) [2]	hygroscopicity ([1]; hydrochloride)	water adsorbed ([1]; 95% relative humidity at 25° C.) [%]	inhibition activity of DPP IV (DPP IV)
N#C[C@@H]1C[C@H](F)CN1C(=O)[C@@H](N)C(c1ccc(F)cc1)c1ccc(F)cc1 [anhydrate form 1, (2S,4S)-4-fluoro-1-[4-fluoro-β-(4-fluorophenyl)-L-phenylalanyl]-2-pyrrolidinecarbonitrile p-toluenesulfonic acid salt]	not hygroscopic	less than 1 % w/w	very little water	readily desorbs	beneficial properties with regard to stability	–	–	–
N#C[C@@H]1C[C@H](F)CN1C(=O)[C@@H](N)C(c1ccc(F)cc1)c1ccc(F)cc1 [HCl salt, (2S,4S)-1-[(2S)-2-Amino-3,3-bis(4-fluorophenyl)propanoyl]-4-fluoropyrrolidine-2-carbonitrile hydrochloride, reference compound]	–	–	–	–	–	hygroscopic	> 10	demonstrates inhibition activity of DPP IV
